Results published in ChEMBL document CHEMBL1137421, “3-Benzimidazol-2-yl-1H-indazoles as potent c-ABL inhibitors” (Bioorg Med Chem Lett, 2006).

Key:
[1] = target: Tyrosine-protein kinase ABL1 (Homo sapiens, UniProt P00519)
Bcr/Abl fusion protein = Bcr/Abl fusion protein (Homo sapiens, UniProt P00519); type: functional, cell-based, K562
Chain of Bcr/Abl fusion protein (P00519 whole entry, the tested form may be a part): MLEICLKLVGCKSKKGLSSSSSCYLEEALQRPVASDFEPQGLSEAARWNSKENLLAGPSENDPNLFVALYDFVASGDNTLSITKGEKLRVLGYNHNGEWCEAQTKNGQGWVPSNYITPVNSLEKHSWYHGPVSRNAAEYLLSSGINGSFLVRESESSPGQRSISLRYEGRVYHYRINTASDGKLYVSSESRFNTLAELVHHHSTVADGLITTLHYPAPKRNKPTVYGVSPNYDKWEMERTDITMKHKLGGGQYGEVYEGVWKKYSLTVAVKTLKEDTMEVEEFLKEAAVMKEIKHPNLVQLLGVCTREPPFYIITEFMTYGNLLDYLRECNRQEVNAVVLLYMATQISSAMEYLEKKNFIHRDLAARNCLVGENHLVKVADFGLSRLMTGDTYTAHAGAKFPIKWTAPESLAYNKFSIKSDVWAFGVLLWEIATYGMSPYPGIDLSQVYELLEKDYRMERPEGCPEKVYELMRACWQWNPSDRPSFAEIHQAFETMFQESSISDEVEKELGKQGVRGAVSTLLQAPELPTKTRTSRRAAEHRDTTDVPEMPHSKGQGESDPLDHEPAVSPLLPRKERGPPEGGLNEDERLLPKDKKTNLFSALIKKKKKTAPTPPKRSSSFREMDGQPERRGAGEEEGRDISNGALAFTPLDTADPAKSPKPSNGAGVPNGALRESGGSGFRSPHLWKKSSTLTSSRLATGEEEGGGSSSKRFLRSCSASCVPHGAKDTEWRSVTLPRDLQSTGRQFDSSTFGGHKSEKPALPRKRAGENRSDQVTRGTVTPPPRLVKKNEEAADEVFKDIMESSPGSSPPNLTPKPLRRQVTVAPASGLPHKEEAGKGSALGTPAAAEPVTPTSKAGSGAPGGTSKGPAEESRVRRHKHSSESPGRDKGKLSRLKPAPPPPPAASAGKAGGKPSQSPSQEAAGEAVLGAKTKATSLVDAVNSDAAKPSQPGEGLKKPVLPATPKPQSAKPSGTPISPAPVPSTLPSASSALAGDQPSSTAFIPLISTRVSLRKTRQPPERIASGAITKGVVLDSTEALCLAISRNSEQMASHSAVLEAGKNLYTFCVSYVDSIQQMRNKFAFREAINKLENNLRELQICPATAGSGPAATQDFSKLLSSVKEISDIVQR
Chain of Bcr/Abl fusion protein (P11274 whole entry, further chain, the tested form may be a part): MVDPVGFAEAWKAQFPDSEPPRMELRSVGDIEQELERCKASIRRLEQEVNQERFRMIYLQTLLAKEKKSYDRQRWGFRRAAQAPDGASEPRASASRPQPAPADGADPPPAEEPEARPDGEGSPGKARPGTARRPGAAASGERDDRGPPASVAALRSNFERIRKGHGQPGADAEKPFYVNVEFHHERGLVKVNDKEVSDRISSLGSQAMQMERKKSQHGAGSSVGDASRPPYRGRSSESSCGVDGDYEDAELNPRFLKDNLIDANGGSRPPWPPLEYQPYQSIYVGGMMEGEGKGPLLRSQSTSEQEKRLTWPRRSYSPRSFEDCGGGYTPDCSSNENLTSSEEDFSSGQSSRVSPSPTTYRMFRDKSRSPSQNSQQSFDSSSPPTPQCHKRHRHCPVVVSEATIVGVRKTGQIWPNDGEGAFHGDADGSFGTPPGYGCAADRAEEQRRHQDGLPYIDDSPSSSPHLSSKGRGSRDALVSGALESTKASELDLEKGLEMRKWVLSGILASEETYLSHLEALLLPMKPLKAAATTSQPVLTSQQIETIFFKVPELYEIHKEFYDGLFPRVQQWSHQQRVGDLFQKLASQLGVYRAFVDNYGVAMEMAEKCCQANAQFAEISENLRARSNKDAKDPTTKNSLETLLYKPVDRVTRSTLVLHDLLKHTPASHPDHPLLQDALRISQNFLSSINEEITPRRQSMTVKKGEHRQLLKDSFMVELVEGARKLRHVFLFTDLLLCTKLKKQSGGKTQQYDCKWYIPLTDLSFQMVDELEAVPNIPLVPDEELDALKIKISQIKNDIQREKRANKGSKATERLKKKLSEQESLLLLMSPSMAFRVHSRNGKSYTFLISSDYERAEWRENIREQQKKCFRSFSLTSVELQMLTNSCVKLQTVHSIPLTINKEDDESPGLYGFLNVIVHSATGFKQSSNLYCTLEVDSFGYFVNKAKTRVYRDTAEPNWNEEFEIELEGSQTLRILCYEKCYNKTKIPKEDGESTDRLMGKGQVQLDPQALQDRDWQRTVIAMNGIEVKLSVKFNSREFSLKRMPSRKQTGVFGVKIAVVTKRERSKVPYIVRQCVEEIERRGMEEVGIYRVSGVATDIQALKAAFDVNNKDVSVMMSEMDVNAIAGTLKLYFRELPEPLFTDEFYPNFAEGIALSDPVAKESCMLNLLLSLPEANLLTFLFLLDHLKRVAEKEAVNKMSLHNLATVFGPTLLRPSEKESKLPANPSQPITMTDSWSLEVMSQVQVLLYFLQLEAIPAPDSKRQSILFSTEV

Chain of Tyrosine-protein kinase ABL1 (P00519 whole entry, the tested form may be a part): as the sequence (P00519 whole entry, the tested form may be a part) above

Compound	IC50 [1]	EC50 (Bcr/Abl fusion protein)
COc1ccc(Oc2ccc3[nH]nc(-c4nc5cc(N6CCC(N7CCCCC7)CC6)ccc5[nH]4)c3c2)cc1	220 nM	–
COc1ccc2[nH]nc(-c3nc4ccc(N5CCC(N6CCCCC6)CC5)cc4[nH]3)c2c1	230 nM	–
c1ccc(COc2ccc3c(-c4nc5ccc(N6CCC(N7CCCCC7)CC6)cc5[nH]4)n[nH]c3c2)cc1	200 nM	–
c1ccc(CN2CCC(Nc3ccc4[nH]nc(-c5nc6cc(N7CCC(N8CCCCC8)CC7)ccc6[nH]5)c4c3)CC2)cc1	7 nM	70 nM
COc1cc2[nH]nc(-c3nc4ccc(N5CCC(N6CCCCC6)CC5)cc4[nH]3)c2cc1OCc1ccccc1	3 nM	–
c1coc(CNc2ccc3[nH]nc(-c4nc5cc(N6CCC(N7CCCCC7)CC6)ccc5[nH]4)c3c2)c1	60 nM	30 nM
COc1ccccc1Oc1ccc2[nH]nc(-c3nc4cc(N5CCC(N6CCCCC6)CC5)ccc4[nH]3)c2c1	20 nM	–
c1ccc(Oc2ccc3[nH]nc(-c4nc5ccc(N6CCC(N7CCCCC7)CC6)cc5[nH]4)c3c2)cc1	30 nM	–
c1ccc(COc2cc3[nH]nc(-c4nc5cc(N6CCC(N7CCCCC7)CC6)ccc5[nH]4)c3cc2OCc2ccccc2)cc1	900 nM	–
c1csc(CNc2ccc3[nH]nc(-c4nc5cc(N6CCC(N7CCCCC7)CC6)ccc5[nH]4)c3c2)n1	10 nM	10 nM
c1ccc(COc2ccc3[nH]nc(-c4nc5ccc(N6CCC(N7CCCCC7)CC6)cc5[nH]4)c3c2)cc1	60 nM	970 nM
O=C(Nc1ccc2[nH]nc(-c3nc4ccc(N5CCC(N6CCCCC6)CC5)cc4[nH]3)c2c1)c1ccco1	150 nM	560 nM
CC(C)(C)NC(=O)Nc1ccc2[nH]nc(-c3nc4ccc(N5CCC(N6CCCCC6)CC5)cc4[nH]3)c2c1	30 nM	360 nM
c1ccc2c(-c3nc4ccc(N5CCC(N6CCCCC6)CC5)cc4[nH]3)n[nH]c2c1	600 nM	–
COc1cccc(Oc2ccc3[nH]nc(-c4nc5cc(N6CCC(N7CCCCC7)CC6)ccc5[nH]4)c3c2)c1	60 nM	–
c1ccc(CNc2ccc3[nH]nc(-c4nc5ccc(N6CCC(N7CCCCC7)CC6)cc5[nH]4)c3c2)cc1	130 nM	1800 nM
